In article PMC9848287, “Novel thiazolone-benzenesulphonamide inhibitors of human and bacterial carbonic anhydrases” (Journal of Enzyme Inhibition and Medicinal Chemistry, 2023):

How the values were obtained:
Experiment in all cases: stopped-flow CO2 hydrase assay
hCA I = molecular target: T1, hCA I (Homo sapiens, UniProt P00915); format: biochemical
T1 construct: gene CA1; recombinant, obtained in-house
From the text: stopped-flow CO2 hydrase assay on hCA I

StCA1 = molecular target: T2, StCA1; format: biochemical, Salmonella enterica subsp. enterica serovar Typhimurium; settings: CO2 hydration, […] TRIS pH […] Na2SO4, […] min preincubation at room temperature
T2 construct: recombinant, obtained in-house

StCA2 = molecular target: T3, StCA2 (Salmonella enterica, UniProt O30898); format: biochemical; settings: CO2 hydration, […] TRIS pH […] Na2SO4, […] min preincubation at room temperature
T3 construct: gene mig-5; recombinant, obtained in-house
T3 sequence (O30898 41-246): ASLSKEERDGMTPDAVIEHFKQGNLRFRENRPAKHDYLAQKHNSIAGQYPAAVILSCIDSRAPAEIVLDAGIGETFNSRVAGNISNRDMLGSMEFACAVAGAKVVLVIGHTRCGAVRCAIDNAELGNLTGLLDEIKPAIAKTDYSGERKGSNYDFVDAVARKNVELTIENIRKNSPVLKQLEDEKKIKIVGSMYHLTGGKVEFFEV

MscCAβ = molecular target: T4, MscCAβ (Mammaliicoccus sciuri, UniProt A0AAJ4SIE8); format: biochemical; settings: CO2 hydration, […] TRIS pH […] Na2SO4, […] min preincubation at room temperature
T4 construct: gene OWO77_14055; recombinant, obtained in-house
T4 sequence (A0AAJ4SIE8 1-189): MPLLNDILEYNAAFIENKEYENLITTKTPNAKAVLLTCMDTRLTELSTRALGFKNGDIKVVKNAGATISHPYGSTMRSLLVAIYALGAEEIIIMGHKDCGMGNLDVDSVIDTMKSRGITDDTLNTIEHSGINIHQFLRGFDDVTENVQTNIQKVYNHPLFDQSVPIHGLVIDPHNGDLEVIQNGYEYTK

hCA VII = molecular target: T5, hCA VII (Homo sapiens, UniProt P43166); format: biochemical
T5 construct: gene CA7; recombinant, obtained in-house
From the text: stopped-flow CO2 hydrase assay on hCA VII

hCA II = molecular target: T6, hCA II (Homo sapiens, UniProt P00918); format: biochemical
T6 construct: gene CA2; recombinant, obtained in-house
From the text: stopped-flow CO2 hydrase assay on hCA II

T1 sequence (P00915 2-261): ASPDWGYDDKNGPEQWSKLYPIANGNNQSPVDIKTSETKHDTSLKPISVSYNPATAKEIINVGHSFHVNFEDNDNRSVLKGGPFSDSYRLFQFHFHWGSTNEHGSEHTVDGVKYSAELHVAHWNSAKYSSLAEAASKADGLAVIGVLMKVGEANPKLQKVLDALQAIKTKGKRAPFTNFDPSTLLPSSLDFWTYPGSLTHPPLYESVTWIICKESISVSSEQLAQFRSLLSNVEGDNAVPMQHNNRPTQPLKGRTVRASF
T5 sequence (P43166 whole entry): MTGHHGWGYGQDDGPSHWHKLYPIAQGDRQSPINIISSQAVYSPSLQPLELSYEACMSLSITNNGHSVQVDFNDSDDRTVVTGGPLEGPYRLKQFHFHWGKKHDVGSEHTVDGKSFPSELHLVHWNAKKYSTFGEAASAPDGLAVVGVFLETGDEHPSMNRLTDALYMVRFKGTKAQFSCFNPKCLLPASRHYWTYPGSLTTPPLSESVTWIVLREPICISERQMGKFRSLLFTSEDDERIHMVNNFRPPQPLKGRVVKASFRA

Row | SMILES | Ki (hCA I) | Ki (StCA1) | Ki (StCA2) | Ki (MscCAβ) | Ki (hCA VII) | Ki (hCA II)
1 | CCCCC1SC(Nc2ccc(S(N)(=O)=O)cc2)=NC1=O (racemic) [4f, 4-((5-Butyl-4-oxo-4,5-dihydrothiazol-2-yl)amino)benzenesulphonamide] | 75 nM | 72.4 nM | 904 nM | 2420 nM | 6.2 nM | 3.2 nM
2 | NS(=O)(=O)c1ccc(NC2=NC(=O)C(F)S2)cc1 (racemic) [4j, 4-((5-Fluoro-4-oxo-4,5-dihydrothiazol-2-yl)amino)benzenesulphonamide] | 138 nM | 90.9 nM | 956 nM | 849 nM | 1.9 nM | 3.7 nM
3 | CCC1SC(Nc2ccc(S(N)(=O)=O)cc2)=NC1=O (racemic) [4c, 4-((5-Ethyl-4-oxo-4,5-dihydrothiazol-2-yl)amino)benzenesulphonamide] | 66.6 nM | 86.1 nM | 481 nM | 411 nM | 1.2 nM | 3.8 nM
4 | CC1SC(Nc2ccc(S(N)(=O)=O)cc2)=NC1=O (racemic) [4b, 4-((5-Methyl-4-oxo-4,5-dihydrothiazol-2-yl)amino)benzenesulphonamide] | 31.5 nM | 89.9 nM | 538 nM | 481 nM | 0.9 nM | 4.3 nM
5 | CC(C)C1SC(Nc2ccc(S(N)(=O)=O)cc2)=NC1=O (racemic) [4e, 4-((5-Isopropyl-4-oxo-4,5-dihydrothiazol-2-yl)amino)benzenesulphonamide] | 85.4 nM | 81.1 nM | 867 nM | 701 nM | 7.5 nM | 7.3 nM
6 | CCCCCCC1SC(Nc2ccc(S(N)(=O)=O)cc2)=NC1=O (racemic) [4g, 4-((5-Hexyl-4-oxo-4,5-dihydrothiazol-2-yl)amino)benzenesulphonamide] | 637 nM | 83.6 nM | 4880 nM | 4030 nM | 14.6 nM | 13.7 nM
7 | NS(=O)(=O)c1ccc(NC2=NC(=O)C(c3ccccc3)S2)cc1 (racemic) [4h, 4-((4-Oxo-5-phenyl-4,5-dihydrothiazol-2-yl)amino)benzenesulphonamide] | 90.4 nM | 163 nM | 797 nM | 1060 nM | 7.3 nM | 1.3 nM
8 | NS(=O)(=O)c1ccc(NC2=NC(=O)C(CCBr)S2)cc1 (racemic) [4i, 4-((5-(2-Bromoethyl)-4-oxo-4,5-dihydrothiazol-2-yl)amino)benzenesulphonamide] | 74.6 nM | 69.2 nM | 515 nM | 925 nM | 2.1 nM | 2.2 nM
9 | CCCC1SC(Nc2ccc(S(N)(=O)=O)cc2)=NC1=O (racemic) [4d, 4-((4-Oxo-5-propyl-4,5-dihydrothiazol-2-yl)amino)benzenesulphonamide] | 70.7 nM | 83.3 nM | 913 nM | 73.6 nM | 2 nM | 2.3 nM
10 | NS(=O)(=O)c1ccc(NC2=NC(=O)CS2)cc1 [4a, 4-((4-Oxo-4,5-dihydrothiazol-2-yl)amino)benzenesulphonamide] |  | 82.4 nM | 275 nM | 787 nM | 1.4 nM | 
